Measurements taken from the supplement of paper PMC10307832.

compound: CC1(COc2ccc3c(c2)ncn3-c2ccc3cccc(N4CCC(N)CC4)c3n2)COC1 [Crenolanib] + O=C(CCCCCCC(=O)Nc1ccccc1)NO [Vorinostat] (partner 1 µM); test: relative viability (nuclei count vs DMSO), 5 days (fraction); higher = more cells survive; details: first compound 1 µM
Outline: (§1)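 Lung cancer cell lines in 1536-well plates got either a single drug or a fixed anchor-drug dose together with five library-drug doses (not always all listed) in √10 steps, by pin tool, on the day after seeding. Nuclei were counted after 5 days, and relative viability is the treated-to-vehicle ratio of nuclei counts. Values are medians of duplicate plates.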

| Cell Line | relative viability |
| --- | --- |
| CAL-12T | 0.66 |
| NCI-H1666 | 1.06 |
| H3255 | 0.726 |
| NCI-H23 | 0.459 |
| NCI-H1915 | 0.459 |
| NCI-H1437 | 0.628 |
| NCI-H322M | 0.784 |
| NCI-H2085 | 0.759 |
| NCI-H1793 | 0.698 |
| PC-3 [JPC-3] | 0.582 |
| EKVX | 0.654 |
| LCLC-103H | 0.746 |
| NCI-H1650 | 0.676 |
| NCI-H1944 | 0.4 |
| NCI-H1993 | 0.729 |
| SK-LU-1 | 0.795 |
| ABC-1 | 0.934 |
| NCI-H358 | 0.611 |

compound: CC1(COc2ccc3c(c2)ncn3-c2ccc3cccc(N4CCC(N)CC4)c3n2)COC1 [Crenolanib] + CCNC(=O)c1noc(-c2cc(C(C)C)c(O)cc2O)c1-c1ccc(CN2CCOCC2)cc1 [Luminespib] (partner 0.01 µM); test: as above; details: first compound 0.01 µM
Outline: as §1

| Cell Line | relative viability |
| --- | --- |
| NCI-H441 | 0.387 |
| LOU-NH91 | 0.326 |
| NCI-H2023 | 0.839 |
| A-427 | 0.84 |
| NCI-H460 | 0.0489 |
| NCI-H727 | 0.353 |
| NCI-H1755 | 0.416 |
| NCI-H520 | 0.19 |
| NCI-H2405 | 0.786 |
| SW 1573 | 0.833 |
| NCI-H1395 | 0.686 |
| 201T | 1.03 |
| NCI-H1975 | 0.337 |
| HOP-62 | 0.944 |
| NCI-H2347 | 0.44 |
| NCI-H1355 | 0.741 |
| NCI-H650 | 0.839 |

| Cell Line | relative viability |
| --- | --- |
| CAL-12T | 0.338 |
| NCI-H1666 | 1.07 |
| H3255 | 0.963 |
| NCI-H23 | 0.235 |
| NCI-H1915 | 0.787 |
| NCI-H1437 | 1.18 |
| NCI-H322M | 0.949 |
| NCI-H2085 | 0.478 |
| NCI-H1793 | 0.197 |
| PC-3 [JPC-3] | 0.806 |
| EKVX | 0.915 |
| LCLC-103H | 1.02 |
| NCI-H1650 | 0.193 |
| NCI-H1944 | 0.729 |
| NCI-H1993 | 0.998 |
| SK-LU-1 | 0.205 |
| NCI-H358 | 1.3 |

same assay, conditions: first compound 0.03162 µM

| Cell Line | relative viability |
| --- | --- |
| NCI-H441 | 0.393 |
| LOU-NH91 | 0.304 |
| NCI-H2023 | 0.704 |
| A-427 | 0.828 |
| NCI-H460 | 0.039 |
| NCI-H727 | 0.376 |
| NCI-H1755 | 0.656 |
| NCI-H520 | 0.269 |
| NCI-H2405 | 0.83 |
| SW 1573 | 0.283 |
| NCI-H1395 | 0.803 |
| 201T | 1.13 |
| NCI-H1975 | 0.22 |
| HOP-62 | 0.89 |
| NCI-H1355 | 0.777 |
| NCI-H650 | 0.791 |
| CAL-12T | 0.398 |

| Cell Line | relative viability |
| --- | --- |
| NCI-H1666 | 1.11 |
| H3255 | 1.06 |
| NCI-H23 | 0.279 |
| NCI-H1915 | 0.875 |
| NCI-H1437 | 1.17 |
| NCI-H322M | 0.88 |
| NCI-H2085 | 0.43 |
| NCI-H1793 | 0.249 |
| PC-3 [JPC-3] | 0.761 |
| EKVX | 0.952 |
| LCLC-103H | 0.922 |
| NCI-H1650 | 0.231 |
| NCI-H1944 | 0.801 |
| NCI-H1993 | 0.839 |
| SK-LU-1 | 0.246 |
| ABC-1 | 0.655 |
| NCI-H358 | 0.307 |

same assay, conditions: first compound 0.1 µM

| Cell Line | relative viability |
| --- | --- |
| NCI-H441 | 0.333 |
| LOU-NH91 | 0.33 |
| NCI-H2023 | 0.639 |
| A-427 | 0.916 |
| NCI-H460 | 0.0453 |
| NCI-H727 | 0.264 |
| NCI-H1755 | 0.667 |
| NCI-H520 | 0.279 |
| SW 1573 | 0.152 |
| NCI-H1395 | 0.698 |
| 201T | 1.01 |
| NCI-H1975 | 0.182 |
| HOP-62 | 0.859 |
| NCI-H1355 | 0.65 |
| NCI-H650 | 0.777 |
| CAL-12T | 0.272 |
| NCI-H1666 | 0.991 |

| Cell Line | relative viability |
| --- | --- |
| H3255 | 0.986 |
| NCI-H23 | 0.226 |
| NCI-H1915 | 0.757 |
| NCI-H1437 | 1.1 |
| NCI-H322M | 0.752 |
| NCI-H2085 | 0.407 |
| NCI-H1793 | 0.165 |
| PC-3 [JPC-3] | 0.676 |
| EKVX | 0.909 |
| LCLC-103H | 0.878 |
| NCI-H1650 | 0.203 |
| NCI-H1944 | 0.759 |
| NCI-H1993 | 0.684 |
| SK-LU-1 | 0.217 |
| ABC-1 | 0.666 |
| NCI-H358 | 0.232 |

same assay, conditions: first compound 0.3162 µM

| Cell Line | relative viability |
| --- | --- |
| NCI-H441 | 0.433 |
| LOU-NH91 | 0.303 |
| NCI-H2023 | 1 |
| A-427 | 1.01 |
| NCI-H460 | 0.0313 |
| NCI-H727 | 0.428 |
| NCI-H1755 | 0.43 |
| NCI-H520 | 0.216 |
| NCI-H2405 | 0.641 |
| SW 1573 | 0.54 |
| NCI-H1395 | 0.763 |
| 201T | 1.09 |
| NCI-H1975 | 0.269 |
| HOP-62 | 0.93 |
| NCI-H2347 | 0.556 |
| NCI-H1355 | 0.721 |
| NCI-H650 | 0.872 |
| CAL-12T | 0.363 |

| Cell Line | relative viability |
| --- | --- |
| NCI-H1666 | 0.977 |
| H3255 | 0.917 |
| NCI-H23 | 0.216 |
| NCI-H1915 | 0.857 |
| NCI-H1437 | 1.21 |
| NCI-H322M | 0.769 |
| NCI-H2085 | 0.481 |
| NCI-H1793 | 0.16 |
| PC-3 [JPC-3] | 0.742 |
| EKVX | 1.03 |
| LCLC-103H | 1.06 |
| NCI-H1650 | 0.213 |
| NCI-H1944 | 0.871 |
| NCI-H1993 | 0.823 |
| SK-LU-1 | 0.208 |
| ABC-1 | 0.47 |
| NCI-H358 | 0.343 |

same assay, conditions: first compound 1 µM

| Cell Line | relative viability |
| --- | --- |
| NCI-H441 | 0.359 |
| LOU-NH91 | 0.317 |
| NCI-H2023 | 0.453 |
| A-427 | 0.816 |
| NCI-H460 | 0.0348 |
| NCI-H727 | 0.376 |
| NCI-H1755 | 0.397 |
| NCI-H520 | 0.221 |
| NCI-H2405 | 0.594 |
